Measurements published in patent publication US20230382904A1, “SUBSTITUTED 4-([1,2,4]TRIAZOLO[1,5-a]PYRIDIN-6-YL)THIOPHENE-2-CARBOXAMIDE DERIVATIVES AND USE THEREOF” (The Johns Hopkins University, priority 2020, published 2023).

What was measured:
LZK = LZK (Homo sapiens (Human), UniProt O43283); assay: LZK biochemical assay (TR-FRET, MKK7 phosphorylation)
Procedure: LZK assay is a biochemical assay format designed to screen for inhibitors of LZK. Enzymatic activity of LZK was measured by monitoring phosphorylation of the physiological substrate MKK7 (MAP2K7, Dual specificity mitogen-activated protein kinase kinase 7). Phosphorylation was detected by a TR-FRET system whereby His-tagged MKK7 was labeled by a XL665-labeled anti-His antibody (FRET acceptor, emission 665 nm). LZK phosphorylates MKK7 at T275/S277 which were detected by an Eu-labeled anti-phospho-MKK7 (T275/S277) antibody (FRET donor, excitation 340 nm). Phosphorylation of MKK7 results in an increased TR-FRET signal (Ratio XL665-channel/Eu-channel) and inhibition of enzymatic activity of LZK decreases the TR-FRET signal.
Assay Protocol for 384 low volume MTP format: 1 μl of test compound was pipetted into test plate; +5 μl LZK solution (10 nM LZK, catalytic domain, Carna Biosiences in assay buffer); +5 μl substrate solution (15 nM MKK7, LDB; 15 μM ATP, in assay buffer); 90 min incubation at RT; +5 μl detection mix (20 nM XL665-labeled anti-His antibody, Cisbio; 0.4 nM Eu-labeled anti-phospho-MKK7 (T275/S277), Cisbio/Millipore in detection buffer), 16 h incubation at 32° C.; endpoint measurement BMG (HTRF).
(§1) All indicated concentrations final concentrations.
Assay buffer (384 format): 50 mM Hepes pH 7.5, 10 mM MgCl2, 1 mM EGTA, 1 mM DTT, 0.01% Triton X-100, 0.01% BSA, 1:500 Smart Block.
(§2) Detection buffer: 25 mM Tris/HCl pH 7.5, 100 mM EDTA, 100 mM NaCl, 200 mM KF, 0.01% Tween 20, 1:500 Smart Block.

DLK = DLK (Homo sapiens (Human), UniProt Q12852); assay: DLK biochemical assay (TR-FRET, MKK7 phosphorylation)
Chain of DLK (Q12852 1-520): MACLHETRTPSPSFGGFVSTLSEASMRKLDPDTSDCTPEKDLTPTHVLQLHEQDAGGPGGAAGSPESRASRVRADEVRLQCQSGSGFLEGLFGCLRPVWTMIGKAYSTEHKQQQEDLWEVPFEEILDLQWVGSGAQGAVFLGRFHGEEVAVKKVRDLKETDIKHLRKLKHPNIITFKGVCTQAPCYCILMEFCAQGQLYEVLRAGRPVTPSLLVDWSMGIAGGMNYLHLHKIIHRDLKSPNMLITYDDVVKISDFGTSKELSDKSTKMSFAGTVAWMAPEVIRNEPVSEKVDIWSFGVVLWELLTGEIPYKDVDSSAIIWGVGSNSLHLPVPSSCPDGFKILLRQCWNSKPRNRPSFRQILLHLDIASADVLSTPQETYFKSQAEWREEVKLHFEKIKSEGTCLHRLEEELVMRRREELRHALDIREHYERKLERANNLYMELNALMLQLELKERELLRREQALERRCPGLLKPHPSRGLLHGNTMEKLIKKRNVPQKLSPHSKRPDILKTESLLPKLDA
Procedure: DLK assay is a biochemical assay format designed to screen for inhibitors of DLK. Enzymatic activity of DLK was measured by monitoring phosphorylation of the physiological substrate MKK7 (MAP2K7, Dual specificity mitogen-activated protein kinase kinase 7). Phosphorylation was detected by a TR-FRET system whereby His-tagged MKK7 was labeled by a XL665-labeled anti-His antibody (FRET acceptor, emission 665 nm). DLK phosphorylates MKK7 at T275/S277, which was detected by an Eu-labeled anti-phospho-MKK7 (T275/S277) antibody (F RET donor, excitation 340 nm). Phosphorylation of MKK7 results in an increased TR-FRET signal (Ratio XL665-channel/Eu-channel) and inhibition of enzymatic activity of DLK decreases the TR-FRET signal.
Assay Protocol for 1536 MTP format: test compounds were predispensed (60 nl) in test plates; +3 μl DLK solution (10 nM DLK, catalytic domain, Carna Biosiences, 0.6 mM DTT in assay buffer); +2 μl substrate solution (15 nM MKK7, LDB; 60 μM ATP; 0.4 mM DTT in assay buffer); 90 min incubation at RT; +2 μl detection mix (5 nM XL665-labeled anti-His antibody, Cisbio; 0.1 nM Eu-labeled anti-phospho-MKK7 (T275/S277), Cisbio/Millipore in detection buffer); 16 h incubation at 37° C.; endpoint measurement BMG (HTRF).
Assay Protocol for 384 low volume MTP format: 1 μl of test compounds were pipetted into test plate; +5 μl DLK solution (10 nM DLK, catalytic domain, Carna Biosiences in assay buffer); +5 μl substrate solution (15 nM MKK7, LDB; 60 μM ATP, in assay buffer); 90 min incubation at RT; +9 μl detection mix (20 nM XL665-labeled anti-His antibody, Cisbio; 0.4 nM Eu-labeled anti-phospho-MKK7 (T275/S277), Cisbio/Millipore in detection buffer); 16 h incubation at 4° C.; endpoint measurement BMG (HTRF).
as §1
Assay buffer (384 format): 50 mM Hepes pH 7.5, 10 mM MgCl2, 1 mM EGTA, 1 mM DTT, 0,01% Triton X-100, 0.01% BSA, 1:500 Smart Block.
as §2

Chain of LZK (O43283 168-409): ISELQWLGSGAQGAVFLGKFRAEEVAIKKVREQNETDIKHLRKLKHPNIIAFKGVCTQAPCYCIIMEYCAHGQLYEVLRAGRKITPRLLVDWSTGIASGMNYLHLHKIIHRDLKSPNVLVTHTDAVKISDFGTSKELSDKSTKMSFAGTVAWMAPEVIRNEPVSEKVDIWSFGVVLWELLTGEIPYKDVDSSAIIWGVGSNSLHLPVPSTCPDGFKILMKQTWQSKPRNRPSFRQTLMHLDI

Row | Compound | IC50 (LZK) | IC50 (DLK)
1 | CC(C)Oc1cccc(CNC(=O)c2cc(-c3ccc4nc(N)nn4c3)cs2)c1 [Compound 196] | 9490 nM | 350 nM
2 | CCNC(=O)c1cc(-c2csc(C(=O)NCc3ccc(F)cc3)c2)cn2nc(N)nc12 [Compound 7] | 480 nM | 87 nM
3 | CC(C)NC(=O)c1cc(-c2csc(C(=O)N[C@H](C)c3ccc(F)cc3)c2)cc2nc(N)nn12 [Compound 153] | 280 nM | 32 nM
4 | Nc1nc2ccc(-c3csc(C(=O)NC4CCCC(C(F)(F)F)C4)c3)cn2n1 (stereo not shown) [Compound 176] | > 30000 nM | 1000 nM
5 | CC[C@H](NC(=O)c1cc(-c2cc(C(=O)NC(C)(C)C)c3nc(N)nn3c2)cs1)c1ccccc1 [Compound 84] | 340 nM | 19 nM
6 | Nc1nc2c(C(=O)NC3CNC(=O)C3)cc(-c3csc(C(=O)NCc4ccccc4)c3)cn2n1 (stereo not shown) [Compound 38] | 130 nM | 17 nM
7 | COC[C@H](NC(=O)c1cc(-c2cc(C(=O)NC(C)C)c3nc(N)nn3c2)cs1)c1ccc(F)cc1 [Compound 130] | 120 nM | 14 nM
8 | CC(C)NC(=O)c1cc(-c2csc(C(=O)NCc3ccc(F)cc3)c2)cc2nc(N)nn12 [Compound 145] | 124 nM | 30.5 nM
9 | COC[C@H](C)NC(=O)c1cc(-c2csc(C(=O)NCc3ccc(F)cc3)c2)cn2nc(N)nc12 [Compound 68] | 1600 nM | 300 nM
10 | CC(C)(CO)NC(=O)c1cc(-c2csc(C(=O)NCc3ccc(F)cc3)c2)cn2nc(N)nc12 [Compound 80] | 130 nM | 56.5 nM
11 | CN(C)C(=O)c1cc(-c2csc(C(=O)NCc3ccc(F)cc3)c2)cn2nc(N)nc12 [Compound 1] | > 30000 nM | 20000 nM
12 | C[C@H](NC(=O)c1cc(-c2cc(C(=O)NC3CNC(=O)C3)c3nc(N)nn3c2)cs1)c1ccccc1 (mixture of isomers) [Compound 29] | 60 nM | 2.8 nM
13 | C[C@H](NC(=O)c1cc(-c2cc(C(=O)NC3CCC3)c3nc(N)nn3c2)cs1)c1ccc(F)cc1 [Compound 60] | 295 nM | 5.25 nM

Continued, values first:

Row | IC50 (LZK) | IC50 (DLK) | Compound
14 | 8200 nM | 400 nM | Nc1nc2ccc(-c3csc(C(=O)NCc4ccc(CN5CCCC5=O)cc4)c3)cn2n1 [Compound 328]
15 | 28000 nM | 2500 nM | CN1CCCCC1CNC(=O)c1cc(-c2ccc3nc(N)nn3c2)cs1 (stereo not shown) [Compound 230]
16 | 17000 nM | 1500 nM | Cc1cn(C)nc1CNC(=O)c1cc(-c2ccc3nc(N)nn3c2)cs1 [Compound 243]
17 | 2500 nM | 120 nM | Nc1nc2ccc(-c3csc(C(=O)NC4(c5ccc(F)cc5)CC4)c3)cn2n1 [Compound 299]
18 | 2400 nM | 210 nM | C[C@H](NC(=O)c1cc(-c2cc(C(F)(F)F)c3nc(N)nn3c2)cs1)c1ccc(F)cc1 [Compound 377]
19 | 6100 nM | 42 nM | Nc1nc2ccc(-c3csc(C(=O)NC(c4ccccc4)C4CC4)c3)cn2n1 (stereo not shown) [Compound 327]
20 | 25000 nM | 200 nM | COc1cccc(C(C)NC(=O)c2cc(-c3ccc4nc(N)nn4c3)cs2)c1 (stereo not shown) [Compound 232]
21 | > 30000 nM | 315 nM | N#Cc1cccc(CNC(=O)c2cc(-c3ccc4nc(N)nn4c3)cs2)c1 [Compound 236]
22 | 28000 nM | 300 nM | CCOc1cccc(CNC(=O)c2cc(-c3ccn4nc(N)nc4c3)cs2)c1 [Compound 367]
23 | > 30000 nM | 560 nM | C[C@H]1CCC[C@@H](NC(=O)c2cc(-c3ccc4nc(N)nn4c3)cs2)C1 (single isomer, unassigned) [Compound 200]
24 | 7600 nM | 745 nM | CC(C)c1csc(CNC(=O)c2cc(-c3ccc4nc(N)nn4c3)cs2)n1 [Compound 249]
25 | > 30000 nM | 440 nM | CCc1ccccc1NC(=O)c1cc(-c2ccc3nc(N)nn3c2)cs1 [Compound 278]
26 | > 30000 nM | 24000 nM | Cc1sc(C(=O)NCc2nc3ccccc3o2)cc1-c1ccc2nc(N)nn2c1 [Compound 313]
